The assay deals with L1210 leukemia ip in BDF1 mice, survival T/C. The experiment in a line: NCI In Vivo Anticancer Drug Screen. Data for tumor model L1210 Leukemia (intraperitoneal) in B6D2F1 (BDF1) mice. To be noted: endpoint: mean survival time, higher = longer survival. The method in brief: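 Ratio derived from survival: compound-dosed mice over vehicle-dosed mice, all bearing a transplantable tumor.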

Where [1] appears, read: dose: 100.0 mg/kg/injection, schedule: Q01DX009 (ip), vehicle: Klucel (hydroxypropylcellulose) (HPC).
Where [2] appears, read: dose: 100.0 mg/kg/injection, schedule: Q04DX003 (ip), vehicle: Klucel (hydroxypropylcellulose) (HPC).
The mark [3] stands for this setting: dose: 200.0 mg/kg/injection, schedule: Q01DX009 (ip), vehicle: Klucel (hydroxypropylcellulose) (HPC).
Setting [4] is: dose: 200.0 mg/kg/injection, schedule: Q04DX003 (ip), vehicle: Klucel (hydroxypropylcellulose) (HPC).
The mark [5] stands for this setting: dose: 400.0 mg/kg/injection, schedule: Q01DX009 (ip), vehicle: Klucel (hydroxypropylcellulose) (HPC).
Setting [6] is: dose: 400.0 mg/kg/injection, schedule: Q04DX003 (ip), vehicle: Klucel (hydroxypropylcellulose) (HPC).
[7] abbreviates: dose: 100.0 mg/kg/injection, schedule: Q01DX001 (ip), vehicle: Klucel (hydroxypropylcellulose) (HPC).
[8] abbreviates: dose: 200.0 mg/kg/injection, schedule: Q01DX001 (ip), vehicle: Klucel (hydroxypropylcellulose) (HPC).
Setting [9] is: dose: 50.0 mg/kg/injection, schedule: Q04DX003 (ip), vehicle: saline.
Setting [10] is: dose: 100.0 mg/kg/injection, schedule: Q04DX003 (ip), vehicle: saline.
[11] abbreviates: dose: 100.0 mg/kg/injection, schedule: Q01DX009 (ip), vehicle: saline with Tween-80.
The mark [12] stands for this setting: dose: 100.0 mg/kg/injection, schedule: Q04DX003 (ip), vehicle: saline with Tween-80.
Setting [13] is: dose: 200.0 mg/kg/injection, schedule: Q04DX003 (ip), vehicle: saline with Tween-80.
[14] abbreviates: dose: 400.0 mg/kg/injection, schedule: Q04DX003 (ip), vehicle: saline with Tween-80.
The mark [15] stands for this setting: dose: 200.0 mg/kg/injection, schedule: Q01DX009 (ip), vehicle: saline with Tween-80.
[16] abbreviates: dose: 400.0 mg/kg/injection, schedule: Q01DX009 (ip), vehicle: saline with Tween-80.
Where [17] appears, read: dose: 50.0 mg/kg/injection, schedule: Q04DX003 (ip), vehicle: Klucel (hydroxypropylcellulose) (HPC).

“And” between values parts separate entries of the source, which are not always exact repeats. Identical values can stand only once. Inconclusive results and toxic doses are left out.

For `CC1(C)C2CC3C(C(=O)O)CCCC3(C2)C1Br` (stereo unspecified), the T/C runs as follows: under setting [1], 103 % of control; under setting [2], 87 % of control; under setting [3], 106 % of control; under setting [4], 90 % of control; under setting [5], 97 % of control; under setting [6], 89 % of control.

As for `CC(=O)OC1CCC2(C)C3CCC4(C)C(CC5OC54C(C)=O)C3CC3OC32C1` (stereo unspecified), the T/C by setting is: (dose: 50.0 mg/kg/injection, schedule: Q01DX001 (sc), vehicle: steriod suspending solution) 97 % of control; (dose: 100.0 mg/kg/injection, schedule: Q01DX001 (sc), vehicle: steriod suspending solution) 101 % of control; (dose: 200.0 mg/kg/injection, schedule: Q01DX001 (sc), vehicle: steriod suspending solution) 106 % of control; (dose: 400.0 mg/kg/injection, schedule: Q01DX001 (sc), vehicle: steriod suspending solution) 113 % of control.

`CC(=O)OC1C(COS(=O)(=O)c2ccc(C)cc2)OCOC(COS(=O)(=O)c2ccc(C)cc2)C1OC(C)=O` (stereo unspecified): the T/C runs as follows: under setting [7], 100 % of control; under setting [8], 93 % of control; (dose: 400.0 mg/kg/injection, schedule: Q01DX001 (ip), vehicle: Klucel (hydroxypropylcellulose) (HPC)) 90 % of control.

Consider `COC(=O)C1C2CC3c4[nH]c5ccc(OC)cc5c4CCN3CC2CC(OC(=O)c2cc(OC)c(OC)c(OC)c2)C1OC` (stereo unspecified), for which the T/C reads like this: (dose: 10.0 mg/kg/injection, schedule: Q04DX003 (ip), vehicle: Klucel (hydroxypropylcellulose) (HPC)) 102 % of control; (dose: 20.0 mg/kg/injection, schedule: Q04DX003 (ip), vehicle: Klucel (hydroxypropylcellulose) (HPC)) 98 % of control; (dose: 22.81 mg/kg/injection, schedule: Q01DX009 (ip), vehicle: Klucel (hydroxypropylcellulose) (HPC)) 111 % of control; (dose: 40.0 mg/kg/injection, schedule: Q04DX003 (ip), vehicle: Klucel (hydroxypropylcellulose) (HPC)) 114 % of control; (dose: 45.62 mg/kg/injection, schedule: Q01DX009 (ip), vehicle: Klucel (hydroxypropylcellulose) (HPC)) 91 % of control; (dose: 80.0 mg/kg/injection, schedule: Q04DX003 (ip), vehicle: Klucel (hydroxypropylcellulose) (HPC)) 96 % of control. Further, the T/C was 94 % of control (dose: 91.25 mg/kg/injection, schedule: Q01DX009 (ip), vehicle: Klucel (hydroxypropylcellulose) (HPC)); 93 % of control (dose: 160.0 mg/kg/injection, schedule: Q04DX003 (ip), vehicle: Klucel (hydroxypropylcellulose) (HPC)); 107 % of control (dose: 240.0 mg/kg/injection, schedule: Q04DX003 (ip), vehicle: Klucel (hydroxypropylcellulose) (HPC)); 102 % of control (dose: 365.0 mg/kg/injection, schedule: Q04DX003 (ip), vehicle: Klucel (hydroxypropylcellulose) (HPC)).

For `Oc1ccc2c(c1)CCCC2`, the T/C (dose: 75.0 mg/kg/injection, schedule: Q04DX003 (ip), vehicle: saline) is 102 % of control.

As to `CC(C)N=Cc1cc(Cl)ccc1O.CC(C)N=Cc1cc(Cl)ccc1O.[Co]`, the T/C was 94 % of control under setting [9]; 102 % of control under setting [10]; 105 % of control (dose: 200.0 mg/kg/injection, schedule: Q04DX003 (ip), vehicle: saline).

On to `CCC(CC)C(=O)NC(N)=O`, for which the T/C runs as follows: under setting [2], 98 % of control; under setting [4], 103 % of control; under setting [6], 98 % of control.

Turning to `C=CC[Si](CC=C)(CC=C)OCC`, the T/C reads like this: (dose: 150.0 mg/kg/injection, schedule: Q01DX001 (ip), vehicle: other) 95 % of control; (dose: 300.0 mg/kg/injection, schedule: Q01DX001 (ip), vehicle: other) 101 % of control.

Regarding `C/C(=C\C(=O)O)CBr`, the T/C is 93 % of control (dose: 50.0 mg/kg/injection, schedule: Q01DX009 (ip), vehicle: saline with Tween-80) and 86 % of control under setting [11].

For the compound `CC1(C)CC(=O)NN1C(=O)c1ccccc1`, the T/C by setting is: under setting [12], 108 % of control; under setting [13], 103 % of control; under setting [14], 102 % of control.

For `CN(CCNC(=O)C1CCCCC1C(=O)O)c1ccccc1` (stereo unspecified), the T/C under setting [1] was 98 % of control, the T/C under setting [3] is 92 % of control and the T/C under setting [5] is 96 % of control.

With `CC(=O)CCNC1(c2ccccc2)CCCCC1`, the T/C reads like this: under setting [7], 95 % of control; under setting [8], 95 % of control.

Turning to `O=CNc1ccc(O)cc1`, the T/C is, setting by setting: under setting [11], 104 % of control; under setting [15], 108 % of control; under setting [16], 114 % of control.

For the compound `Nc1n[nH]c(N)n1.[Ni]`, the T/C by setting is: under setting [11], 101 % of control; under setting [12], 113 % of control; under setting [15], 111 % of control; under setting [13], 103 % of control; under setting [16], 104 % of control; under setting [14], 98 % of control.

Regarding `CNC(=O)Nc1nnc(C)s1`, the T/C was 98 % of control under setting [1], 106 % of control under setting [3] and 114 % of control under setting [5].

Take `Cc1ccccc1C(=O)c1ccccc1C`: the T/C runs as follows: (dose: 50.0 mg/kg/injection, schedule: Q01DX001 (ip), vehicle: other) 118 % of control; (dose: 100.0 mg/kg/injection, schedule: Q01DX001 (ip), vehicle: other) 102 % of control; (dose: 200.0 mg/kg/injection, schedule: Q01DX001 (ip), vehicle: other) 113 % of control; (dose: 400.0 mg/kg/injection, schedule: Q01DX001 (ip), vehicle: other) 107 % of control.

Turning to `C1CN(SSN2CCOCC2)CCO1`, the T/C by setting is: (dose: 12.5 mg/kg/injection, schedule: Q04DX003 (ip), vehicle: Klucel (hydroxypropylcellulose) (HPC)) 89 % of control; (dose: 25.0 mg/kg/injection, schedule: Q04DX003 (ip), vehicle: Klucel (hydroxypropylcellulose) (HPC)) 110 % of control; under setting [17], 89 % of control; under setting [4], 102 % of control.

On to `O=C(OCC(O)C(O)C(O)C(COC(=O)c1ccccc1)OC(=O)c1ccccc1)c1ccccc1` (stereo unspecified), for which the T/C was 87 % of control (dose: 87.5 mg/kg/injection, schedule: Q01DX009 (ip), vehicle: carboxymethylcellulose (CMC)); 98 % of control (dose: 100.0 mg/kg/injection, schedule: Q01DX001 (ip), vehicle: carboxymethylcellulose (CMC)); 90 % of control (dose: 175.0 mg/kg/injection, schedule: Q01DX009 (ip), vehicle: carboxymethylcellulose (CMC)); 96 % of control (dose: 200.0 mg/kg/injection, schedule: Q01DX001 (ip), vehicle: carboxymethylcellulose (CMC)); 87 % of control (dose: 350.0 mg/kg/injection, schedule: Q01DX009 (ip), vehicle: carboxymethylcellulose (CMC)); 93 % of control (dose: 400.0 mg/kg/injection, schedule: Q01DX001 (ip), vehicle: carboxymethylcellulose (CMC)).

In the case of `NC1=NC(=S)C2N=C(N=Nc3ccc(C(=O)NC(CCC(=O)O)C(=O)O)cc3)N=C2N1` (stereo unspecified), the T/C is, setting by setting: (dose: 1.56 mg/kg/injection, schedule: Q01DX009 (ip), vehicle: Klucel (hydroxypropylcellulose) (HPC)) 156 % of control and 177 % of control and 194 % of control; (dose: 3.13 mg/kg/injection, schedule: Q01DX009 (ip), vehicle: Klucel (hydroxypropylcellulose) (HPC)) 189 % of control; (dose: 25.0 mg/kg/injection, schedule: Q01DX009 (ip), vehicle: Klucel (hydroxypropylcellulose) (HPC)) 120 % of control; (dose: 50.0 mg/kg/injection, schedule: Q01DX009 (ip), vehicle: Klucel (hydroxypropylcellulose) (HPC)) 121 % of control; under setting [17], 114 % of control; under setting [1], 88 % of control.

On to `CN(Cc1ccccc1)C(Cc1c[nH]c2ccccc12)C(=O)O` (stereo unspecified), for which the T/C (dose: 25.0 mg/kg/injection, schedule: Q04DX003 (ip), vehicle: saline) is 111 % of control; the T/C under setting [9] was 108 % of control; the T/C (dose: 100.0 mg/kg/injection, schedule: Q01DX001 (ip), vehicle: saline) is 100 % of control; the T/C under setting [10] is 94 % of control; the T/C (dose: 150.0 mg/kg/injection, schedule: Q04DX003 (ip), vehicle: acetone) is 91 % of control; the T/C (dose: 225.0 mg/kg/injection, schedule: Q04DX003 (ip), vehicle: acetone) is 109 % of control. Moreover, under “dose: 335.0 mg/kg/injection, schedule: Q04DX003 (ip), vehicle: acetone”, the T/C is 100 % of control.

These data come from PubChem BioAssay AID248 (DTP/NCI, 2004).
